From patent US20140171431A1, “AZOLE HETEROCYCLIC COMPOUND, PREPARATION METHOD, PHARMACEUTICAL COMPOSITION AND USE” (priority 2011, published 2014) come the findings set out here.

Like-named read-outs stand apart in the source and are kept apart here.

Test [1] deals with T1, Lp-PLA2 in rabbit serum (Oryctolagus cuniculus, UniProt G1SE06).
T1 construct: from tissue; host or cells: rabbit serum
T1 sequence (G1SE06 22-423): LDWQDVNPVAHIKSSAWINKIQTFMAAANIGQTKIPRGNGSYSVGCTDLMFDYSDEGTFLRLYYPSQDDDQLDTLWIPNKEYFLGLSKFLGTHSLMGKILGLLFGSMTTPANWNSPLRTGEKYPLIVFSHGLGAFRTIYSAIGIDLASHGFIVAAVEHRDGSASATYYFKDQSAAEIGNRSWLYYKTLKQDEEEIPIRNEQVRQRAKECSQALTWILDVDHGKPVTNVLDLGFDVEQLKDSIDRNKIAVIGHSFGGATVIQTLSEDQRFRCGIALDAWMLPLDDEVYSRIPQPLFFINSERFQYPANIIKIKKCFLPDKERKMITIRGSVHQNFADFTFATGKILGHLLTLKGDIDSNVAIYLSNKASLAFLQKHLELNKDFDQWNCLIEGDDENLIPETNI
The test can be described thus: In vitro inhibitory activity towards the enzyme Lp-PLA2 in rabbit serum, [3H]PAF substrate. It counts as biochemical. As for the experimental part:
(§1) The activities of compounds were measured using [^3H] labeled platelet activating factor ([^3H]PAF, Perkinelmer, Lot NET910) as the substrate. The reaction was carried out in a system containing 50 mmol/L HEPES and 150 mmol/L NaCl (pH 7.4) in a total volume of 200 μl. First, 10 μL rabbit serum and 10 μl DMSO solution of the test compound were added to the system and preincubated for 10 min at 37° C. Then 20 nM [^3H]PAF was added as listed in table 1 to start the reaction and incubated for a further 10 min at 37° C. After that, 600 μl of CHCl3/MeOH (2:1) was added and the resulting mixture was vortex mixed and the reaction was stopped. After settled for a while, the mixture was centrifugated at 12000×g for 15 min. The supernatant was transferred to a new tube and 200 μl of CHCl3 was added. The mixture was mixed by vortexing and then settled or centrifugated for 2 min. A 100 μl portion of the supernatant was then collected for radioactivity intensity measurement.
The inhibition rate was determined by the following equation:
Inhibitory rate (%)=1−(DPMcompound tube−DPMblank tube)/(DPMcontrol tube−DPMblank tube)*100%
(Note: DPM is radioactivity intensity unit.)

Test [2] concerns the target T2, Lp-PLA2 in human serum (Homo sapiens, UniProt Q13093).
T2 construct: from tissue
T2 sequence (Q13093 22-441): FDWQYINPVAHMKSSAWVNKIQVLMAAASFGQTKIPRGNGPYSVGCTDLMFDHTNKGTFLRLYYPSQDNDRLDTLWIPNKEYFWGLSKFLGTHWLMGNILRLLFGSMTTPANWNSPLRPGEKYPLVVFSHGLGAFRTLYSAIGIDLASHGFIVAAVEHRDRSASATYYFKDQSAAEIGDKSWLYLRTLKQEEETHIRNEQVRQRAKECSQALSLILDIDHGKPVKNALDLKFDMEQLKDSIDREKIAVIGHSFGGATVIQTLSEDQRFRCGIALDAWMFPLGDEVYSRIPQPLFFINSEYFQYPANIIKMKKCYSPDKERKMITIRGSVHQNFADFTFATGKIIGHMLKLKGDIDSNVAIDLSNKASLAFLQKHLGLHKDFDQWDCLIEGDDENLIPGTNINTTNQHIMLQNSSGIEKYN
Put plainly: In vitro inhibitory activity towards the enzyme Lp-PLA2 in human serum, [3H]PAF substrate. It counts as biochemical. As for the experimental part: as §1, with “mmol/l” for “mmol/L”, “human plasma” for “rabbit serum”, “was” for “was vortex”, “with vortex.” for “and the reaction was stopped.”, “added and mixed by vortexing.” for “added.”, “was” for “was mixed by vortexing and then”

The mark [3] stands for this setting: 100 nM, rabbit serum, read-out: inhibition, %.
Setting [4] is: 10 nM, human serum, read-out: inhibition, %.
[5] abbreviates: 100 nM, read-out: inhibitory rate towards the rabbit serum derived Lp-PLA2 enzyme.
Setting [6] is: 10 nM, read-out: inhibitory rate towards the human serum derived Lp-PLA2 enzyme.

Take `O=c1nc(SCc2ccc(F)cc2)n(Cc2ncc(CN3CCCC3)n2Cc2ccc(-c3ccc(C(F)(F)F)cc3)cc2)c2c1CCC2` [Example 43, 2-(4-fluorobenzylthio)-1-((5-(pyrrolidin-1-ylmethyl)-1-((4′-(trifluoromethyl)biphenyl-4-yl)methyl)-1H-imidazol-2-yl)methyl)-6,7-dihydro-1H-cyclopenta[d]pyrimidin-4(5H)-one]: the inhibition at 0.1 µM in test [1] (setting [3]) was found to be 78.6%; in test [2] (100 nM, human serum), 92%. In test [2] (setting [4]), the inhibition at 0.01 µM worked out at 67%.

`CN(Cc1ccc(F)cc1)Cc1cnc(Cn2c(SCc3ccc(F)cc3)nc(=O)c3c2CCC3)n1Cc1ccc(-c2ccc(C(F)(F)F)cc2)cc1` [Example 44]: the inhibition at 0.1 µM in test [1] (setting [3]) stood at 89.1%; in test [2] (100 nM, human serum), 95%. In addition, the inhibition at 0.01 µM in test [2] (setting [4]) was 69%.

Regarding `O=c1nc(SCc2ccc(F)cc2)n(Cc2ncc(CN3CCN(Cc4ccccc4)CC3)n2Cc2ccc(-c3ccc(C(F)(F)F)cc3)cc2)c2c1CCC2` [Example 45, 1-((5-((4-benzylpiperazin-1-yl)methyl)-1-((4′-(trifluoromethyl)biphenyl-4-yl)methyl)-1H-imidazol-2-yl)methyl)-2-(4-fluorobenzylthio)-6,7-dihydro-1H-cyclopenta[d]pyrimidin-4(5H)-one], the inhibition at 0.1 µM worked out at 87% in test [1] (setting [3]) and 90% in test [2] (100 nM, human serum). Further, the inhibition at 0.01 µM in test [2] (setting [4]) amounted to 56%.

On to `CN(C)Cc1cnc(Cn2c(SCc3ccc(F)cc3)nc(=O)c3c2CCC3)n1Cc1ccc(-c2ccc(C(F)(F)F)cc2)cc1` [Example 46, 1-((5-((dimethylamino)methyl)-1-((4′-(trifluoromethyl)biphenyl-4-yl)methyl)-1H-imidazol-2-yl)methyl)-2-(4-fluorobenzylthio)-6,7-dihydro-1H-cyclopenta[d]pyrimidin-4(5H)-one], for which the inhibition at 0.1 µM was found to be 87.1% in test [1] (setting [3]) and 89% in test [2] (100 nM, human serum). In addition, in test [1] (rabbit serum), the inhibition at 1 µM came to 97.2%. In addition, in test [2] (setting [4]), the inhibition at 0.01 µM is 75%.

For `C[N+](C)(Cc1ccc(F)cc1)Cc1cnc(Cn2c(SCc3ccc(F)cc3)nc(=O)c3c2CCC3)n1Cc1ccc(-c2ccc(C(F)(F)F)cc2)cc1` [Example 47, N-(4-fluorobenzyl)-1-(2-((2-(4-fluorobenzylthio)-4-oxo-4,5,6,7-tetrahydro-1H-cyclopenta[d]pyrimidin-1-yl)methyl)-1-((4′-(trifluoromethyl)biphenyl-4-yl)methyl)-1H-imidazol-5-yl)-N,N-dimethylmethanaminium bromide], the inhibition at 0.1 µM in test [1] (setting [3]) is 96.9%; in test [1] (setting [5]), > 90%; in test [2] (100 nM, human serum), 99%. In test [1] (rabbit serum), this compound had an inhibition at 1 µM of 98.6%. Also, the figures for the inhibition at 0.01 µM in test [2] (setting [4]) and in test [2] (setting [6]) were 93% and > 80%, respectively.

Turning to `CN(C)C(=O)c1cnc(Cn2c(SCc3ccc(F)cc3)nc(=O)c3c2CCC3)n1Cc1ccc(-c2ccc(C(F)(F)F)cc2)cc1` [Example 52, 2-((2-(4-fluorobenzylthio)-4-oxo-4,5,6,7-tetrahydro-1H-cyclopenta[d]pyrimidin-1-yl)methyl)-N,N-dimethyl-1-((4′-(trifluoromethyl)biphenyl-4-yl)methyl)-1H-imid azole-5-carboxamide], the inhibition at 0.1 µM was 90% in test [1] (setting [3]); > 90% in test [1] (setting [5]); 99% in test [2] (100 nM, human serum). Besides, the figures for the inhibition at 0.01 µM in test [2] (setting [4]) and in test [2] (setting [6]) were 97% and > 80%, respectively.

Regarding `O=c1nc(SCc2ccc(F)cc2)n(Cc2ncn(Cc3ccc(-c4ccc(C(F)(F)F)cc4)cc3)n2)c2c1CCC2` [Example 61, 2-(4-fluorobenzylthio)-1-((1-((4′-(trifluoromethyl)biphenyl-4-yl)methyl)-1H-1,2,4-triazol-3-yl)methyl)-6,7-dihydro-1H-cyclopenta[d]pyrimidin-4(5H)-one], the inhibition at 0.1 µM came out at 61% in test [1] (setting [3]) and 91% in test [2] (100 nM, human serum). Also, in test [2] (setting [4]), the inhibition at 0.01 µM worked out at 59%.

Regarding `COC(=O)CN(C)Cc1nnc(Cn2c(SCc3ccc(F)cc3)nc(=O)c3c2CCC3)n1Cc1ccc(-c2ccc(C(F)(F)F)cc2)cc1` [Example 62, methyl 2-(((5-((2-(4-fluorobenzylthio)-4-oxo-4,5,6,7-tetrahydro-1H-cyclopenta[d]pyrimidin-1-yl)methyl)-4-((4′-(trifluoromethyl)biphenyl-4-yl)methyl)-4H-1,2,4-triazol-3-yl)methyl)(methyl)amino)acetate], the “inhibition, %” value in test [1] (100 nM, rabbit serum, 0.1 µM) worked out at 73.8%; in test [2] (10 nM, human serum, 0.01 µM), 76%; in test [2] (100 nM, human serum, 0.1 µM) it was 94%. For the same compound, the inhibition at 0.1 µM in test [1] (setting [3]) turned out to be 81.9%; in test [2] (100 nM, human serum) it was 96%. Besides, the inhibition at 0.01 µM in test [2] (setting [4]) came to 83%.

In the case of `Cc1nnc(Cn2c(SCc3ccc(F)cc3)nc(=O)c3c2CCC3)n1Cc1ccc(-c2ccc(C(F)(F)F)cc2)cc1` [Example 64, 2-(4-fluorobenzylthio)-1-((5-methyl-4-((4′-(trifluoromethyl)biphenyl-4-yl)methyl)-4H-1,2,4-triazol-3-yl)methyl)-6,7-dihydro-1H-cyclopenta[d]pyrimidin-4(5H)-one], the inhibition at 0.1 µM in test [1] (setting [3]) worked out at 78.9%; in test [2] (100 nM, human serum), 93%. Moreover, in test [2] (setting [4]), the inhibition at 0.01 µM stood at 73%.

As for `Cc1nnc(Cn2cc(Cc3cnn(C)c3)c(=O)nc2SCc2ccc(F)cc2)n1Cc1ccc(-c2ccc(C(F)(F)F)cc2)cc1` [Example 65, 2-(4-fluorobenzylthio)-5-((1-methyl-1H-pyrazol-4-yl)methyl)-1-((5-methyl-4-((4′-(trifluoromethyl)biphenyl-4-yl)methyl)-4H-1,2,4-triazol-3-yl)methyl)pyrimidin-4(1H)-one], the inhibition at 0.1 µM in test [1] (setting [3]) is 60%; in test [2] (100 nM, human serum), 96%. For the same compound, in test [2] (setting [4]), the inhibition at 0.01 µM is 82%.

For the compound `CCCc1nnc(Cn2c(SCc3ccc(F)cc3)nc(=O)c3c2CCC3)n1Cc1ccc(-c2ccc(C(F)(F)F)cc2)cc1` [Example 66, 2-(4-fluorobenzylthio)-1-((5-propyl-4-((4′-(trifluoromethyl)biphenyl-4-yl)methyl)-4H-1,2,4-triazol-3-yl)methyl)-6,7-dihydro-1H-cyclopenta[d]pyrimidin-4(5H)-one], the inhibition at 0.1 µM came to 88% in test [1] (setting [3]) and 98% in test [2] (100 nM, human serum). Also, in test [2] (setting [4]), the inhibition at 0.01 µM was found to be 88%.

On to `CC(C)c1nnc(Cn2c(SCc3ccc(F)cc3)nc(=O)c3c2CCC3)n1Cc1ccc(-c2ccc(C(F)(F)F)cc2)cc1` [Example 67, 2-(4-fluorobenzylthio)-1-((5-isopropyl-4-((4′-(trifluoromethyl)biphenyl-4-yl)methyl)-4H-1,2,4-triazol-3-yl)methyl)-6,7-dihydro-1H-cyclopenta[d]pyrimidin-4(5H)-one], for which the inhibition at 0.1 µM in test [1] (setting [3]) is 91%; in test [1] (setting [5]), > 90%; in test [2] (100 nM, human serum), 98%. The values for the inhibition at 0.01 µM in test [2] (setting [4]) and in test [2] (setting [6]) were 92% and > 80%, respectively.
